Results from paper PMC10065799, “High-throughput profiling of sequence recognition by tyrosine kinases and SH2 domains using bacterial peptide display” (eLife, 2023).

Biological target: T1, c-Abl kinase domain (Mus musculus, UniProt P00520)
T1 sequence (P00520 242-493 limits assumed): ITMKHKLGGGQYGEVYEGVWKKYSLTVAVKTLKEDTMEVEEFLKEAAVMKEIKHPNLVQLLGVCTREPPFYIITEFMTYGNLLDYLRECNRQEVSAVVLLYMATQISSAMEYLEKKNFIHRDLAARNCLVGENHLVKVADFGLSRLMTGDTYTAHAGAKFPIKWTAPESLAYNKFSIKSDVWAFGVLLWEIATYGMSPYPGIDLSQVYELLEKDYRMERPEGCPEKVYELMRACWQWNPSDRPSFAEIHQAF
Assay: pTyr-Var library bacterial peptide display kinase screen (enrichment scores)
Type: biochemical
Conditions: variant versus reference peptide

GMAHNYRNRSQ [AASS_Y188_S191R]
c-Abl difference (mean log2 variant - mean log2 reference): 0.7958
